# Assay results as given in ChEMBL document CHEMBL1201862, “PubChem BioAssay data set” (2004).
# Calls of active or inactive are those of the source.
# What was measured:
# Type in all cases: functional
# [1] = target: Receptor tyrosine-protein kinase erbB-4 (Homo sapiens, UniProt Q15303);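 note: ERBB4 member of a kinome-wide kinase profiling panel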
# [2] = target: Serine/threonine-protein kinase PLK4 (Homo sapiens, UniProt O00444);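 note: PLK4 measured as one member of a kinome-wide kinase profiling panel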
# Chain of Serine/threonine-protein kinase PLK4 (O00444 whole entry): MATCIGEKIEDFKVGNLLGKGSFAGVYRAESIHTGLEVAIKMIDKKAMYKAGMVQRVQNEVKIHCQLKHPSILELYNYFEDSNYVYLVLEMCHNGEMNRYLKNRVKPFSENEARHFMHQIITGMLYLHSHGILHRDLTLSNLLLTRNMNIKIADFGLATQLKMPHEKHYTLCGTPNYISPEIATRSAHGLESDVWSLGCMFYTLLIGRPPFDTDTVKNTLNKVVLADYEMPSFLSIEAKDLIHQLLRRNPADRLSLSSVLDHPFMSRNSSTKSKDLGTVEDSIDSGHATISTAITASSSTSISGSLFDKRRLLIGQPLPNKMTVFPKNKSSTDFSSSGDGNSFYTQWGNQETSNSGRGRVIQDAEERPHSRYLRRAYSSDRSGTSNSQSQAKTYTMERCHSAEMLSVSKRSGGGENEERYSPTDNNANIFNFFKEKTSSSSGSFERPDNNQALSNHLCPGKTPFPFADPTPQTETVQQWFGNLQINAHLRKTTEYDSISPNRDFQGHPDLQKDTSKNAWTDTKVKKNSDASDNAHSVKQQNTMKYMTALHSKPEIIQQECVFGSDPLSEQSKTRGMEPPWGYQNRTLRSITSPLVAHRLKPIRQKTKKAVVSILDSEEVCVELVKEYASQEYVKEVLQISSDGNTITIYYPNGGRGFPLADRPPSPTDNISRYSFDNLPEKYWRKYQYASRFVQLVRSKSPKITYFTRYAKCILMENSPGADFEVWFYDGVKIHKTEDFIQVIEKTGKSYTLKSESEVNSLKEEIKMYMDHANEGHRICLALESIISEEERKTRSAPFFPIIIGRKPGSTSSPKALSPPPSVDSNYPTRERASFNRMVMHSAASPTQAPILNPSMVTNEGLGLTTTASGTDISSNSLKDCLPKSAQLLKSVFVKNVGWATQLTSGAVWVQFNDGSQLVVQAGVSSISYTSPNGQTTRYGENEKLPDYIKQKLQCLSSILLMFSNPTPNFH
# [3] = target: 5'-AMP-activated protein kinase catalytic subunit alpha-1 (Homo sapiens, UniProt Q13131)
# Chain of 5'-AMP-activated protein kinase catalytic subunit alpha-1 (Q13131 whole entry, canonical isoform): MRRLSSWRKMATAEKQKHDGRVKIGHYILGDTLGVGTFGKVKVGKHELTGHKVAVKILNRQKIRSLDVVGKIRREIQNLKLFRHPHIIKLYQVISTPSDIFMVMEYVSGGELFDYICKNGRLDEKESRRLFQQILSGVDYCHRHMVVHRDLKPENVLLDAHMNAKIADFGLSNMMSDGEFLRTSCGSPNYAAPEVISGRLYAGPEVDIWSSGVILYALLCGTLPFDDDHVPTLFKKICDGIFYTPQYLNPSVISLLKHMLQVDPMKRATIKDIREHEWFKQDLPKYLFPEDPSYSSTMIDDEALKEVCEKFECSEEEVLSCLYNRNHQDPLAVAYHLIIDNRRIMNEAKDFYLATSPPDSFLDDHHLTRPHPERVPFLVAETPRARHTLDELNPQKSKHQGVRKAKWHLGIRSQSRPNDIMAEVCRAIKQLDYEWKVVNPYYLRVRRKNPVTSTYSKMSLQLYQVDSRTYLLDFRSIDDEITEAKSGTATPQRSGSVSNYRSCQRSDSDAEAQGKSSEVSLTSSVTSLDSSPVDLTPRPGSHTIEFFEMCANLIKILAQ
# [4] = target: Phosphorylase b kinase gamma catalytic chain, liver/testis isoform (Homo sapiens, UniProt P15735);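 note: PHKG2 measured as one member of a kinome-wide kinase panel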
# Chain of Phosphorylase b kinase gamma catalytic chain, liver/testis isoform (P15735 whole entry, canonical isoform): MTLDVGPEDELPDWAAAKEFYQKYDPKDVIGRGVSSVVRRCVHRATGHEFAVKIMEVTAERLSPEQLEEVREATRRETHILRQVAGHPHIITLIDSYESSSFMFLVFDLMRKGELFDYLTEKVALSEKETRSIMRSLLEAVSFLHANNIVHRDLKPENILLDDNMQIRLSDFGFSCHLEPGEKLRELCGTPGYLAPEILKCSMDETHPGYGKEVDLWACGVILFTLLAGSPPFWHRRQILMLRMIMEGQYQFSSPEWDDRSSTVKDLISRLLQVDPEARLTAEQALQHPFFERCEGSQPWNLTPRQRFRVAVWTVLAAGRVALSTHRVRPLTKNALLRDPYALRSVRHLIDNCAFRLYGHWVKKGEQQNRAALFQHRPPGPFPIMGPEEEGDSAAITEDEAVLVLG
# [5] = target: Protein kinase C delta type (Homo sapiens, UniProt Q05655)
# [6] = target: Testis-specific serine/threonine-protein kinase 2 (Homo sapiens, UniProt Q96PF2);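 note: part of the Navigating the Kinome panel, target entry STK22B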
# [7] = target: Serine/threonine-protein kinase pim-2 (Homo sapiens, UniProt Q9P1W9);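 note: value comes from a broad kinase panel profiling study in which PIM2 was one of the panel members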
# Chain of Serine/threonine-protein kinase pim-2 (Q9P1W9 whole entry): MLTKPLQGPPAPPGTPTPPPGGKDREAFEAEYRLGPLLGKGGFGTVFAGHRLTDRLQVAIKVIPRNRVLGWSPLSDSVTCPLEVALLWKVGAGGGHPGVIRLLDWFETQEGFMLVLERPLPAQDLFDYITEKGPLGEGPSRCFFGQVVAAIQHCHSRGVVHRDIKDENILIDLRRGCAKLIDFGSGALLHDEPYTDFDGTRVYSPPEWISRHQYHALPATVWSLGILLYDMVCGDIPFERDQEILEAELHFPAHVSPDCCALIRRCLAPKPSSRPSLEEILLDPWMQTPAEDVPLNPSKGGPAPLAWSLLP
# [8] = target: Cyclin-dependent kinase 5 (Homo sapiens, UniProt Q00535);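 note: CDK5 measured as one member of a kinase profiling panel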
# Chain of Cyclin-dependent kinase 5 (Q00535 whole entry): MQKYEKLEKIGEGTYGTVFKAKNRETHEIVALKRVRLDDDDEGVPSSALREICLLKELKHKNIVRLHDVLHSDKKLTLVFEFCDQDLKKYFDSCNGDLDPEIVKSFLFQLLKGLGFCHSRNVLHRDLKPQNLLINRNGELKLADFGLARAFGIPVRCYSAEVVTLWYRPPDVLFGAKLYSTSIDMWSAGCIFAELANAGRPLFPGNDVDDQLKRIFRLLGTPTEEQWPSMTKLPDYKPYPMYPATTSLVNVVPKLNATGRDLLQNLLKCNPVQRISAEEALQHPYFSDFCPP
# [9] = target: Vascular endothelial growth factor receptor 2 (Homo sapiens, UniProt P35968)
# SRSF protein kinase 1 = SRSF protein kinase 1 (Homo sapiens, UniProt Q96SB4);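 note: measured as one member of a kinome-wide kinase profiling panel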
# Chain of SRSF protein kinase 1 (Q96SB4 whole entry): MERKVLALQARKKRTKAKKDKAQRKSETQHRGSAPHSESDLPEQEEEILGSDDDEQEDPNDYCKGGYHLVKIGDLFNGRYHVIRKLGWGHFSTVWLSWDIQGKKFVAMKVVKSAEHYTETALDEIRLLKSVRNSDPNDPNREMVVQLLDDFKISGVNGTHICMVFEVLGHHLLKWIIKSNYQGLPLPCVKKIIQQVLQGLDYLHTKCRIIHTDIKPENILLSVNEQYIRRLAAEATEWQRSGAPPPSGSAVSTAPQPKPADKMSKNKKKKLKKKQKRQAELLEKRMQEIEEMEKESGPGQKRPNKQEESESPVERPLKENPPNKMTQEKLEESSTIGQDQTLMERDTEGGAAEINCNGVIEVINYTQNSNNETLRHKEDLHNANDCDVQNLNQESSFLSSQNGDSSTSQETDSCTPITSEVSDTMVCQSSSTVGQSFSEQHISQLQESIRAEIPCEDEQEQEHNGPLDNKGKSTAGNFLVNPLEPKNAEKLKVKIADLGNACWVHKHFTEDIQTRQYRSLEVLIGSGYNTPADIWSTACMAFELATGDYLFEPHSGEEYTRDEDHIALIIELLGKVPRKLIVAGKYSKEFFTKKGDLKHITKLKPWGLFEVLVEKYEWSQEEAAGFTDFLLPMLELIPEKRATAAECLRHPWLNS
# [10] = target: Hepatocyte growth factor receptor (Homo sapiens, UniProt P08581);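 note: kinase panel profiling across the kinome, with MET as the panel member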
# [11] = target: Serine/threonine-protein kinase BRSK1 (Homo sapiens, UniProt Q8TDC3);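 note: measured within a kinome-wide kinase panel, with the target listed as KIAA1811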
# [12] = target: MAP kinase-interacting serine/threonine-protein kinase 2 (Homo sapiens, UniProt Q9HBH9)
# [13] = target: Serine/threonine-protein kinase Nek2 (Homo sapiens, UniProt P51955)
# Chain of Serine/threonine-protein kinase Nek2 (P51955 whole entry): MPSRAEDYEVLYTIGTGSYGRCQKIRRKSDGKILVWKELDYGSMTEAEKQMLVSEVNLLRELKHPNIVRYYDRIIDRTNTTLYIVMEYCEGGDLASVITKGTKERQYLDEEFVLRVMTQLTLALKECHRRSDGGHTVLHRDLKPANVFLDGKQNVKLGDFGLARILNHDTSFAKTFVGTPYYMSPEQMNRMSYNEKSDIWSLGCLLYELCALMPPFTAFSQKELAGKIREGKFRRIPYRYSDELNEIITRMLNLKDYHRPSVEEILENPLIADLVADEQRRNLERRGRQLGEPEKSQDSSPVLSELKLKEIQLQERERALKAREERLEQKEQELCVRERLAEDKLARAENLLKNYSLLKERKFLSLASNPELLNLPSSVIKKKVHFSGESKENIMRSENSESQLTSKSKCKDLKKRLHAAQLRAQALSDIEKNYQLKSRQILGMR
# [14] = target: Serine/threonine-protein kinase N2 (Homo sapiens, UniProt Q16513)
# Chain of Serine/threonine-protein kinase N2 (Q16513 whole entry): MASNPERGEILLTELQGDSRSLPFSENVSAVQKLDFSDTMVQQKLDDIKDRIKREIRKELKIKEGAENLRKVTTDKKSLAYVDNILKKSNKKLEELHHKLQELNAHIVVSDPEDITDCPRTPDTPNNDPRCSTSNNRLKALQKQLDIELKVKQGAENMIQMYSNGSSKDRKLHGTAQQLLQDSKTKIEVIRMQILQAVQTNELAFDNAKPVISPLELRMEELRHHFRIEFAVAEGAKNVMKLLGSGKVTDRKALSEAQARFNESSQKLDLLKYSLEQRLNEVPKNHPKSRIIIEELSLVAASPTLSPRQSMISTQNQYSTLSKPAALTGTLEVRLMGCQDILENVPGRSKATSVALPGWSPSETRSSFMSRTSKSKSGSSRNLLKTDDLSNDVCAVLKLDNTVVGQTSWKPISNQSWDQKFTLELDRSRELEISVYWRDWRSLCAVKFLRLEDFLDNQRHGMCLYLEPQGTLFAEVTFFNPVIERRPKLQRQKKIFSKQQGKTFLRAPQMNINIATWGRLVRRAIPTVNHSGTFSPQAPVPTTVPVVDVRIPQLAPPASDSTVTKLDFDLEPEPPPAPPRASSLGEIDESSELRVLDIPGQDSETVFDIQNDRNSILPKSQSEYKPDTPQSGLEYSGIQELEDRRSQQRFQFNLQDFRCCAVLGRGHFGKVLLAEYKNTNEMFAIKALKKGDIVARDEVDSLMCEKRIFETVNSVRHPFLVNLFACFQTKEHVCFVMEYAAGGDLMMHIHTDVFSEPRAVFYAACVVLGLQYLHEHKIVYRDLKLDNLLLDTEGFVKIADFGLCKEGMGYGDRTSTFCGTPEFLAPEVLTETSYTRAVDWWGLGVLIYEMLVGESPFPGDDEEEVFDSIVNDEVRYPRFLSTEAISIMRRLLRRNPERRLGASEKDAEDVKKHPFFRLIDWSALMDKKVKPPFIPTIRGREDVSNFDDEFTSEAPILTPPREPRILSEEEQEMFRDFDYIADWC
# [15] = target: Lymphokine-activated killer T-cell-originated protein kinase (Homo sapiens, UniProt Q96KB5);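 note: value comes from a kinase panel screen in which TOPK was one of the panel members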
# [16] = target: Tyrosine-protein kinase FRK (Homo sapiens, UniProt P42685);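 note: FRK tested as one member of a kinome panel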
# [17] = target: MAP kinase-activated protein kinase 2 (Homo sapiens, UniProt P49137);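 note: measured as one member of a kinome-wide kinase panel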
# Chain of MAP kinase-activated protein kinase 2 (P49137 whole entry): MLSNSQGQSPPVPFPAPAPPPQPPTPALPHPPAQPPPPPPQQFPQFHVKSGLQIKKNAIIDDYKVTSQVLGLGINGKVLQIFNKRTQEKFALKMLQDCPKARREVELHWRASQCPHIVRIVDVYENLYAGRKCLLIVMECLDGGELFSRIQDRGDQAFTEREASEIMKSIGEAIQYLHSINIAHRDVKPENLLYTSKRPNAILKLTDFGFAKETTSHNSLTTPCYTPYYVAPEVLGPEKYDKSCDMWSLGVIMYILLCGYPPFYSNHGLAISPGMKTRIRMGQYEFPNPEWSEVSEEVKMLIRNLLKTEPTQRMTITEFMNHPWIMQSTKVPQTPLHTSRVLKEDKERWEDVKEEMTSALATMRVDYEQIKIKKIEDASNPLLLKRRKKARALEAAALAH
compound,measurement,setting,value
NC1CCCCC1Nc1nccc(-c2c[nH]c3ncccc23)n1 (stereo not drawn),Ki,[1],> 3.98 µM (inactive)
same,Ki,[2],3.16 µM (active)
same,Ki,[3],794 nM (active)
same,Ki,[4],158 nM (active)
same,Ki,[5],200 nM (active)
same,Ki,[6],100 nM (active)
same,Ki,[7],1 µM (active)
same,Ki,[8],50.1 nM (active)
same,Ki,[9],7.94 µM (active)
same,Ki,SRSF protein kinase 1,1.26 µM (active)
same,Ki,[10],> 3.16 µM (inactive)
same,Ki,[11],5.01 µM (active)
same,Ki,[12],126 nM (active)
same,Ki,[13],> 10 µM (inactive)
same,Ki,[14],251 nM (active)
same,Ki,[15],631 nM (active)
same,Ki,[16],1.58 µM (active)
same,Ki,[17],> 7.94 µM (inactive)
